The target in the test is T1, Solute carrier family 12 member 5 (Homo sapiens, UniProt Q9H2X9).
T1 sequence (Q9H2X9 whole entry): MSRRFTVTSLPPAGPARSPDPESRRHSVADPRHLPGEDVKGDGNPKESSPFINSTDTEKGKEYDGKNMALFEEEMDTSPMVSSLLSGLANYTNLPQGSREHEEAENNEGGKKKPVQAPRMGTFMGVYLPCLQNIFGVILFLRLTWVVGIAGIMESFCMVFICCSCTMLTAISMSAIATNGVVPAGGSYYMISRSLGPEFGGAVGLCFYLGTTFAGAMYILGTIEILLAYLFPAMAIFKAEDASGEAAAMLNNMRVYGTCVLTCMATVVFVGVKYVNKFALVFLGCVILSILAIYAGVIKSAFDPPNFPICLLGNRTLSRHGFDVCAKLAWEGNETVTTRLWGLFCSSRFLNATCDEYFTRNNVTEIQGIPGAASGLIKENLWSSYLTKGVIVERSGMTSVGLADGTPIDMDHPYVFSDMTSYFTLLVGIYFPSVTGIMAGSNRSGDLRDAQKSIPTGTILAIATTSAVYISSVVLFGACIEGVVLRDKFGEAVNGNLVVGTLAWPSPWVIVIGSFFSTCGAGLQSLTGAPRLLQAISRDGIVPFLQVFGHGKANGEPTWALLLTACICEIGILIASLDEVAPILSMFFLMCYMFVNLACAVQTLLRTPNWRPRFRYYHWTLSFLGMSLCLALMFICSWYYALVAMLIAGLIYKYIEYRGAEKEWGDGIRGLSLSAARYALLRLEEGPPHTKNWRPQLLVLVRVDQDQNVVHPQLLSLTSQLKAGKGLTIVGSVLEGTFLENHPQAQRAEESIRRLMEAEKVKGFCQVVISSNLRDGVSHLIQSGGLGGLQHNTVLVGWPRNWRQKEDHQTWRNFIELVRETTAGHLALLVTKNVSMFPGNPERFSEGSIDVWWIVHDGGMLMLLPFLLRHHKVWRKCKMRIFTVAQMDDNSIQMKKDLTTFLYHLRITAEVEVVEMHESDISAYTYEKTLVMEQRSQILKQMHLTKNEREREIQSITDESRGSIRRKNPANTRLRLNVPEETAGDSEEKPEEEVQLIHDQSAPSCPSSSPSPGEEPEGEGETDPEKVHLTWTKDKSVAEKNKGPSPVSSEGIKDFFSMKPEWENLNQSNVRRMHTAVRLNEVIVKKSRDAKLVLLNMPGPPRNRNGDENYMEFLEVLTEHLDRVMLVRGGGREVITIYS
The test can be described thus: modulation of KCC2 K-Cl transport – cell-based, assay 2, dose response (AID 1723).

Consider `Fc1cccc(F)c1C=NNC(=S)Nc1cccnc1` [1-[(2,6-difluorobenzylidene)amino]-3-(3-pyridyl)thiourea], for which the EC50 was determined as 25.4 µM.

`Cc1ccc(-c2ccc(C=NNC(N)=S)o2)cc1` [1-[[5-(4-methylphenyl)furan-2-yl]methylideneamino]thiourea] had an EC50 (inactive by the depositor's call) of 47 µM.

As for `O=C(C=Cc1ccccc1)CC(=O)c1ccccc1O` [MLS000627068], the EC50 amounted to 23.6 µM.

In the case of `CC(C)c1ccc(OCC(=O)NNC(=O)c2cnccn2)cc1` [MLS000332605], a half-maximal effect (EC50) was put at 17 µM.

The compound `S=C(NCCc1ccccc1)NN=Cc1cccc(Cl)c1Cl` [1-[(2,3-dichlorobenzylidene)amino]-3-phenethyl-thiourea] yielded a concentration for a half-maximal effect (EC50) of 14.9 µM.

In the case of `COc1cc(NC(=S)NC(=O)c2ccco2)ccc1NC(=O)C(C)C` [MLS000672338], a half-maximal response (EC50) required 12 µM.

As to `O=[N+]([O-])c1ccccc1C=C[CH+][N-]n1c(-c2ccc(Cl)cc2)n[nH]c1=S` [MLS000555506], the EC50 came to 148 µM.

Compound `S=c1nc(-c2ccc3c(c2)CCO3)cc[nH]1` displayed an EC50 of 11.2 µM.

Consider `COC(=O)c1sccc1NC(=S)OC` [3-(methoxycarbothioylamino)thiophene-2-carboxylic acid methyl ester], for which a half-maximal response (EC50) required 2.46 µM.

With `Cc1[nH]n2c(=O)cc(C(C)C)nc2c1-c1ccccc1`, the EC50 turned out to be 16.1 µM.

As to `O=c1c2ccccc2[nH]c(=S)n1CCN1CCC(=C(c2ccc(F)cc2)c2ccc(F)cc2)CC1` [SMR000058550], the EC50 worked out at 8.8 µM.

`CCOc1cccc(C(=O)NC(=S)Nc2cccc(C)c2)c1` [3-ethoxy-N-(m-tolylthiocarbamoyl)benzamide]: the EC50 was found to be 1.33 µM.

`Oc1ccccc1CN=Nc1nc2ccccc2o1` [(6E)-6-[(1,3-benzoxazol-2-ylhydrazo)methylidene]-1-cyclohexa-2,4-dienone] displayed an EC50 of 49 µM.

Take `O=C(NC(=S)Nc1nc(-c2cccc([N+](=O)[O-])c2)cs1)c1ccccc1Cl` [2-chloranyl-N-[[4-(3-nitrophenyl)-1,3-thiazol-2-yl]carbamothioyl]benzamide]: a half-maximal effect (EC50) was put at 74 µM.

Regarding `O=C1OC(c2ccc(O)cc2)(c2ccc(O)cc2)c2ccccc21`, the response was half-maximal at 8.04 µM (EC50).

Consider `Cc1nn(-c2nc3ccccc3[nH]2)c(N)c1-c1ccccc1` [MLS000063763], for which the EC50 amounted to 1.42 µM.

`CCOc1[nH]n(-c2ccccc2)c(=O)c1C=Nc1ccc(F)cc1F` [(4E)-4-[[[2,4-bis(fluoranyl)phenyl]amino]methylidene]-5-ethoxy-2-phenyl-pyrazol-3-one] had a concentration giving a half-maximal response (EC50) of 976 µM.

For the compound `Cc1cccc(N2CCN(C(=O)CCCn3c(=S)[nH]c4cc5c(cc4c3=O)OCO5)CC2)c1C` [MLS000095366], the EC50 stood at 9.51 µM.

For the compound `NC(=S)NN=C1C(=O)N(Cc2ccc(F)cc2)c2ccccc21` [1-[(Z)-[1-[(4-fluorophenyl)methyl]-2-oxidanylidene-indol-3-ylidene]amino]thiourea], the concentration for a half-maximal effect (EC50) is 5.71 µM.

As to `O=[N+]([O-])c1ccc(-c2cn(-c3ccccc3F)c(=S)[nH]2)cc1`, a half-maximal response (EC50) required 0.507 µM.

Values taken from BindingDB's records for doi:10.7270/Q2QV3JZ2 (Vanderbilt Screening Center for GPCRs, Ion Channels and …, 2009).
